Results taken from US20220323406A1, “METHODS AND COMPOSITIONS FOR DIFFERENTIATING STEM CELLS” (Massachusetts Institute of Technology, priority 2019, published 2022).

Experiments:
[1] = test system: ENR+CD organoids (ISC to Paneth cell differentiation); assay: Primary screen: basal (non-stimulated) lysozyme secretion LYZ.NS, 2.5-D 384-well ENR+CD organoid differentiation; format: cell-based, mouse; conditions: primary screen; for Z.LYZ.NS: standard z score
Text: (§1) High-throughput screening.

[2] = test system: ENR+CD organoids (ISC to Paneth cell differentiation); assay: Primary screen: CCh-stimulated lysozyme secretion LYZ.S, 2.5-D 384-well ENR+CD organoid differentiation; format: cell-based, mouse; conditions: primary screen
Text: as §1

[3] = test system: ENR+CD organoids; assay: Primary screen: ATP (CellTiter-Glo 3D, CTG) cell number/viability, 2.5-D 384-well ENR+CD organoids; conditions: primary screen; for Z.CTG: standard z score;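 as to all read-outs here: compounds given at plating and again on day 3 over a 6-day differentiation from ENR+CV stem-cell-enriched precursors, ATP measured on day 6, plate median as control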
[4] = 1st dose row of the treatment (0.08 uM by row order; dose not reprinted)
[5] = 2nd dose row of the treatment (0.40 uM by row order; dose not reprinted)
[6] = 3rd dose row of the treatment (2.00 uM by row order; dose not reprinted)
[7] = 4th dose row of the treatment (10.00 uM by row order; dose not reprinted)
[8] = dose 0.08 uM, FC relative to plate median
[9] = dose 0.40 uM, FC relative to plate median
[10] = dose 2.00 uM, FC relative to plate median
[11] = dose 10.00 uM, FC relative to plate median

C=CCNC1=C2C[C@@H](C)C[C@H](OC)[C@H](O)[C@@H](C)/C=C(\C)[C@H](OC(N)=O)[C@@H](OC)/C=C\C=C(/C)C(=O)NC(=CC1=O)C2=O [17-AAG (Tanespimycin)]
SSMD.LYZ.NS_Rep (strictly standardized mean difference) [1, 4]: −1.180 | SSMD.LYZ.NS_Rep (strictly standardized mean difference) [1, 5]: −1.186 | SSMD.LYZ.NS_Rep (strictly standardized mean difference) [1, 6]: −1.053 | SSMD.LYZ.NS_Rep (strictly standardized mean difference) [1, 7]: −1.183 | Dose.FC.LYZ.NS ([1]; dose 0.08 uM): −0.193 log2 fold change | Z.LYZ.NS (standard z score) ([1]; dose 0.08 uM): −1.682 | Dose.FC.LYZ.NS ([1]; dose 0.40 uM): −0.205 log2 fold change | Z.LYZ.NS (standard z score) ([1]; dose 0.40 uM): −1.786 | Dose.FC.LYZ.NS ([1]; dose 2.00 uM): −0.142 log2 fold change | Z.LYZ.NS (standard z score) ([1]; dose 2.00 uM): −1.239 | Dose.FC.LYZ.NS ([1]; dose 10.00 uM): −0.187 log2 fold change | Z.LYZ.NS (standard z score) ([1]; dose 10.00 uM): −1.631 | SSMD.LYZ.S_Rep (strictly standardized mean difference) [2, 4]: −1.387 | Z.LYZ.S (standard z score) [2, 4]: −1.826 | SSMD.LYZ.S_Rep (strictly standardized mean difference) [2, 5]: −1.428 | Z.LYZ.S (standard z score) [2, 5]: −2.199 | SSMD.LYZ.S_Rep (strictly standardized mean difference) [2, 6]: −1.462 | Z.LYZ.S (standard z score) [2, 6]: −2.219 | SSMD.LYZ.S_Rep (strictly standardized mean difference) [2, 7]: −1.655 | Z.LYZ.S (standard z score) [2, 7]: −1.975 | Dose.FC.LYZ.S ([2]; dose 0.08 uM): −0.282 log2 fold change | Dose.FC.LYZ.S ([2]; dose 0.40 uM): −0.340 log2 fold change | Dose.FC.LYZ.S ([2]; dose 2.00 uM): −0.343 log2 fold change | Dose.FC.LYZ.S ([2]; dose 10.00 uM): −0.306 log2 fold change | SSMD.CTG.Rep (strictly standardized mean difference) [3, 4]: −0.926 | SSMD.CTG.Rep (strictly standardized mean difference) [3, 5]: −1.023 | SSMD.CTG.Rep (strictly standardized mean difference) [3, 6]: −1.783 | SSMD.CTG.Rep (strictly standardized mean difference) [3, 7]: −1.348 | Dose.FC.CTG ([3]; dose 0.08 uM): −1.012 log2 fold change | Z.CTG (standard z score) ([3]; dose 0.08 uM): −2.418 | Dose.FC.CTG ([3]; dose 0.40 uM): −1.262 log2 fold change | Z.CTG (standard z score) ([3]; dose 0.40 uM): −3.015 | Dose.FC.CTG ([3]; dose 2.00 uM): −1.459 log2 fold change | Z.CTG (standard z score) ([3]; dose 2.00 uM): −3.486 | Dose.FC.CTG ([3]; dose 10.00 uM): −1.446 log2 fold change | Z.CTG (standard z score) ([3]; dose 10.00 uM): −3.454

CC[C@@H]1C(=O)N(C)c2cnc(Nc3ccc(C(=O)NC4CCN(C)CC4)cc3OC)nc2N1C1CCCC1 [BI 2536]
Dose.FC.LYZ.NS ([1]; dose 0.08 uM): −0.104 log2 fold change | Z.LYZ.NS (standard z score) ([1]; dose 0.08 uM): −0.907 | Dose.FC.LYZ.NS ([1]; dose 0.40 uM): −0.129 log2 fold change | Z.LYZ.NS (standard z score) ([1]; dose 0.40 uM): −1.121 | Dose.FC.LYZ.NS ([1]; dose 2.00 uM): −0.134 log2 fold change | Z.LYZ.NS (standard z score) ([1]; dose 2.00 uM): −1.168 | Dose.FC.LYZ.NS ([1]; dose 10.00 uM): −0.109 log2 fold change | Z.LYZ.NS (standard z score) ([1]; dose 10.00 uM): −0.953 | Dose.FC.LYZ.S ([2]; dose 0.08 uM): −0.163 log2 fold change | Dose.FC.LYZ.S ([2]; dose 0.40 uM): −0.220 log2 fold change | Dose.FC.LYZ.S ([2]; dose 2.00 uM): −0.224 log2 fold change | Dose.FC.LYZ.S ([2]; dose 10.00 uM): −0.185 log2 fold change | Dose.FC.CTG ([3]; dose 0.08 uM): 0.029 log2 fold change | Dose.FC.CTG ([3]; dose 0.40 uM): −0.534 log2 fold change | Dose.FC.CTG ([3]; dose 2.00 uM): −0.511 log2 fold change | Dose.FC.CTG ([3]; dose 10.00 uM): −1.028 log2 fold change

O=S(=O)(c1ccccc1)c1cnc2c(N3CCNCC3)cccc2c1 [SB742457]
Dose.FC.LYZ.NS [1, 8]: 0.012 log2 fold change | Z.LYZ.NS ([1]; dose 0.08 uM): 0.108 | Dose.FC.LYZ.NS [1, 9]: −0.062 log2 fold change | Z.LYZ.NS ([1]; dose 0.40 uM): −0.537 | Dose.FC.LYZ.NS [1, 10]: 0.069 log2 fold change | Z.LYZ.NS ([1]; dose 2.00 uM): 0.598 | Dose.FC.LYZ.NS [1, 11]: 0.013 log2 fold change | Z.LYZ.NS ([1]; dose 10.00 uM): 0.115 | Dose.FC.LYZ.S [2, 8]: −0.055 log2 fold change | Dose.FC.LYZ.S [2, 9]: −0.029 log2 fold change | Dose.FC.LYZ.S [2, 10]: −0.003 log2 fold change | Dose.FC.LYZ.S [2, 11]: −0.006 log2 fold change | Dose.FC.CTG [3, 8]: −0.290 log2 fold change | Z.CTG ([3]; dose 0.08 uM): −0.693 | Dose.FC.CTG [3, 9]: −0.126 log2 fold change | Z.CTG ([3]; dose 0.40 uM): −0.300 | Dose.FC.CTG [3, 10]: −0.177 log2 fold change | Z.CTG ([3]; dose 2.00 uM): −0.423 | Dose.FC.CTG [3, 11]: −0.294 log2 fold change | Z.CTG ([3]; dose 10.00 uM): −0.702
